Reference: the supplement of paper PMC11208160

Assay: recombinant UMI read abundance after kanamycin selection (control-corrected) (log10(CPM+1)); higher = more efficient recombination; extreme values may be limits of the assay; sequences stand for … in AGTGCAGAGAAAATCGGCCAGTTTTCTCTGCCTGCAGTCCGCATGCCGTGGGACCCCTTGGGTTCTAACCTGTTGCCTAGATTTATGCAGCGGACTGCCTTTCTCCCAAAGTGATAAACCGG…AGGTTGGTTTCACT; site = the 11-nt donor
Outline: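 The measure is log10(CPM+1) for recombinant UMIs. These were PCR-amplified across the donor–target junction and sequenced after Escherichia coli carrying a donor and donor-binding-loop pair library and a target plasmid with T7-inducible IS621 bridge recombinase was plated on IPTG (0.07 mM) plus kanamycin or unselected. CPM were averaged over two replicates and scaled by control-derived factors.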
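Further: IS621 bridge recombinase in Escherichia coli cells against a fixed T5 target plasmid.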

Sequence	recombinant UMI read abundance (log10)
TCATATACATGGACCGGTTTTCCCGGTAATCCGTATTTGCA (site TCATATACTTG)	0.743
TCATATACATGGACCGGTTTTCCCGGTAATCCGTATTTGGA (site TCATATACTTC)	0.727
TCATCGGCATGGACCGGTTTTCCCGGTAATCCGTATTTGAG (site TCATCGGCTCT)	0.699
TCATCTACATGGACCGGTTTTCCCGGTAATCCGTATTTGTG (site ACATCTACTCA)	0.0432
TCATCTACATGGACCGGTTTTCCCGGTAATCCGTATTTGTG (site CCATCTACTCA)	0.00835
TCATCTACATGGACCGGTTTTCCCGGTAATCCGTATTTGTG (site GCATCTACTCA)	0.0109
TCATCTACATGGACCGGTTTTCCCGGTAATCCGTATTTGTG (site TCATCTACTCA)	0.00873
TCATGGTCATGGACCGGTTTTCCCGGTAATCCGTATTTGTT (site TCATGGTCTAA)	0.48
TCCAAAGCATGGACCGGTTTTCCCGGTAATCCGTATTTGAC (site GTACCGCCTAG)	0
TCCAACTCATGGACCGGTTTTCCCGGTAATCCGTATTTGCC (site TCCAAATCTGG)	0
TCCAACTCATGGACCGGTTTTCCCGGTAATCCGTATTTGCC (site TCCAACTCTGG)	0
TCCAACTCATGGACCGGTTTTCCCGGTAATCCGTATTTGCC (site TCCAAGTCTGG)	0
TCCAACTCATGGACCGGTTTTCCCGGTAATCCGTATTTGCC (site TCCAATTCTGG)	0
TCCAATTCATGGACCGGTTTTCCCGGTAATCCGTATTTGCC (site ACCAATTCTGG)	0
TCCAATTCATGGACCGGTTTTCCCGGTAATCCGTATTTGCC (site CCCAATTCTGG)	0
TCCAATTCATGGACCGGTTTTCCCGGTAATCCGTATTTGCC (site GCCAATTCTGG)	0
TCCAATTCATGGACCGGTTTTCCCGGTAATCCGTATTTGCC (site TACAATTCTGG)	0
TCCAATTCATGGACCGGTTTTCCCGGTAATCCGTATTTGCC (site TCAAATTCTGG)	0
TCCAATTCATGGACCGGTTTTCCCGGTAATCCGTATTTGCC (site TCCAAATCTGG)	0
TCCAATTCATGGACCGGTTTTCCCGGTAATCCGTATTTGCC (site TCCAACTCTGG)	0
TCCAATTCATGGACCGGTTTTCCCGGTAATCCGTATTTGCC (site TCCAAGTCTGG)	0
TCCAATTCATGGACCGGTTTTCCCGGTAATCCGTATTTGCC (site TCCAATACTGG)	0
TCCAATTCATGGACCGGTTTTCCCGGTAATCCGTATTTGCC (site TCCAATCCTGG)	0
TCCAATTCATGGACCGGTTTTCCCGGTAATCCGTATTTGCC (site TCCAATGCTGG)	0
TCCAATTCATGGACCGGTTTTCCCGGTAATCCGTATTTGCC (site TCCAATTCTAG)	0

Sequence	recombinant UMI read abundance (log10)
TCCAATTCATGGACCGGTTTTCCCGGTAATCCGTATTTGCC (site TCCAATTCTCG)	0
TCCAATTCATGGACCGGTTTTCCCGGTAATCCGTATTTGCC (site TCCAATTCTGC)	0
TCCAATTCATGGACCGGTTTTCCCGGTAATCCGTATTTGCC (site TCCAATTCTGG)	0
TCCAATTCATGGACCGGTTTTCCCGGTAATCCGTATTTGCC (site TCCAATTCTGT)	0
TCCAATTCATGGACCGGTTTTCCCGGTAATCCGTATTTGCC (site TCCAATTCTTG)	0
TCCAATTCATGGACCGGTTTTCCCGGTAATCCGTATTTGCC (site TCCACTTCTGG)	0
TCCAATTCATGGACCGGTTTTCCCGGTAATCCGTATTTGCC (site TCCAGTTCTGG)	0
TCCAATTCATGGACCGGTTTTCCCGGTAATCCGTATTTGCC (site TCCATTTCTGG)	0
TCCAATTCATGGACCGGTTTTCCCGGTAATCCGTATTTGCC (site TCCCATTCTGG)	0
TCCAATTCATGGACCGGTTTTCCCGGTAATCCGTATTTGCC (site TCCGATTCTGG)	0
TCCAATTCATGGACCGGTTTTCCCGGTAATCCGTATTTGCC (site TCCTATTCTGG)	0
TCCAATTCATGGACCGGTTTTCCCGGTAATCCGTATTTGCC (site TCGAATTCTGG)	0
TCCAATTCATGGACCGGTTTTCCCGGTAATCCGTATTTGCC (site TCTAATTCTGG)	0
TCCAATTCATGGACCGGTTTTCCCGGTAATCCGTATTTGCC (site TGCAATTCTGG)	0
TCCAATTCATGGACCGGTTTTCCCGGTAATCCGTATTTGCC (site TTCAATTCTGG)	0
TCCAATTCATGGACCGGTTTTCCCGGTAATCCGTATTTGTC (site TCCAATTCTGA)	0
TCCAATTCATGGACCGGTTTTCCCGGTAATCCGTATTTGTC (site TCCAATTCTGC)	0
TCCAATTCATGGACCGGTTTTCCCGGTAATCCGTATTTGTC (site TCCAATTCTGG)	0
TCCAATTCATGGACCGGTTTTCCCGGTAATCCGTATTTGTC (site TCCAATTCTGT)	0
TCCACCGCATGGACCGGTTTTCCCGGTAATCCGTATTTGCC (site TCCACCGCTAG)	0.0325
TCCACCGCATGGACCGGTTTTCCCGGTAATCCGTATTTGCC (site TCCACCGCTCG)	0.0335
TCCACCGCATGGACCGGTTTTCCCGGTAATCCGTATTTGCC (site TCCACCGCTGG)	0
TCCACCGCATGGACCGGTTTTCCCGGTAATCCGTATTTGCC (site TCCACCGCTTG)	0.00442
TCCAGTACATGGACCGGTTTTCCCGGTAATCCGTATTTGAG (site TCCAGTACTCT)	0.00906
TCCATATCATGGACCGGTTTTCCCGGTAATCCGTATTTGTC (site ACCATATCTGA)	0

Sequence	recombinant UMI read abundance (log10)
TCCATATCATGGACCGGTTTTCCCGGTAATCCGTATTTGTC (site CCCATATCTGA)	0
TCCATATCATGGACCGGTTTTCCCGGTAATCCGTATTTGTC (site GCCATATCTGA)	0
TCCCACACATGGACCGGTTTTCCCGGTAATCCGTATTTGTA (site ACCCACACTTA)	0.0202
TCCCACACATGGACCGGTTTTCCCGGTAATCCGTATTTGTA (site CCCCACACTTA)	0.0988
TCCCACACATGGACCGGTTTTCCCGGTAATCCGTATTTGTA (site GCCCACACTTA)	0.0195
TCCCACACATGGACCGGTTTTCCCGGTAATCCGTATTTGTA (site TCCCACACTTA)	0.42
TCCCACTCATGGACCGGTTTTCCCGGTAATCCGTATTTGGG (site TCCCACTCTCC)	0.0433
TCCCCAACATGGACCGGTTTTCCCGGTAATCCGTATTTGCT (site TCCCCAACTAG)	0.417
TCCCCTTCATGGACCGGTTTTCCCGGTAATCCGTATTTGAG (site TCCCCTTCTCT)	0
TCCCGCCCATGGACCGGTTTTCCCGGTAATCCGTATTTGGC (site TCCCGCCCTGC)	0
TCCGAGACATGGACCGGTTTTCCCGGTAATCCGTATTTGCG (site TCAGAGACTCG)	0.0174
TCCGAGACATGGACCGGTTTTCCCGGTAATCCGTATTTGCG (site TCCGAGACTCG)	0.0319
TCCGAGACATGGACCGGTTTTCCCGGTAATCCGTATTTGCG (site TCGGAGACTCG)	0.0214
TCCGAGACATGGACCGGTTTTCCCGGTAATCCGTATTTGCG (site TCTGAGACTCG)	0.0115
TCCGCCGCATGGACCGGTTTTCCCGGTAATCCGTATTTGCG (site TCCACCGCTCG)	0
TCCGCCGCATGGACCGGTTTTCCCGGTAATCCGTATTTGCG (site TCCCCCGCTCG)	0.00514
TCCGCCGCATGGACCGGTTTTCCCGGTAATCCGTATTTGCG (site TCCGCCGCTCG)	0.0179
TCCGCCGCATGGACCGGTTTTCCCGGTAATCCGTATTTGCG (site TCCTCCGCTCG)	0.00863
TCCGCTACATGGACCGGTTTTCCCGGTAATCCGTATTTGAT (site TCCGCTACTAT)	0.00615
TCCGGGTCATGGACCGGTTTTCCCGGTAATCCGTATTTGTA (site TCCGGGTCTTA)	0.413
TCCTAATCATGGACCGGTTTTCCCGGTAATCCGTATTTGTC (site TCCTAATCTGA)	0
TCCTACCCATGGACCGGTTTTCCCGGTAATCCGTATTTGAG (site TCCTACCCTCT)	0.0177
TCCTAGCCATGGACCGGTTTTCCCGGTAATCCGTATTTGCC (site ACCTAGCCTGG)	0
TCCTAGCCATGGACCGGTTTTCCCGGTAATCCGTATTTGCC (site CCCTAGCCTGG)	0
TCCTAGCCATGGACCGGTTTTCCCGGTAATCCGTATTTGCC (site GCCTAGCCTGG)	0.221
